Experimental data from patent publication US20200071316A1, “ACTIVATORS OF THE RETINOIC ACID INDUCIBLE GENE "RIG-I" PATHWAY AND METHODS OF USE THEREOF” (Kineta Immuno-Oncology LLC, priority 2018, published 2020).
Marks after values point to notes of the source that are not given here.

Key:
[1] = system: IRF3 signaling pathway (IRF-inducible ISG54 promotor) in THP1-Lucia ISG cells; assay: THP1-Lucia ISG reporter assay: induction of IRF3-dependent luciferase activity; type: cell-based; conditions: Homo sapiens, PMA-differentiated cells, 18 h after stimulation, read-out: THP1 ISG: fold increase of IRF3-dependent luciferase activity over background; for fold induction at 10 µM: 10 μM compound
In short: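 PMA-differentiated (100 ng/ml) reporter cells, parental and IRF3−/−, stimulated with compounds at 5–20 μM (mostly 10 μM). Secreted luciferase measured 18 h later. Scored as fold increase over untreated background in bands from "−" (<2.4-fold) to "+++++" (≥40-fold).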

[2] = system: THP1-Lucia ISG IRF3 −/− cells; assay: IRF3-deficient THP1-Lucia ISG IRF3 −/− reporter assay (counter-screen); type: cell-based; conditions: Homo sapiens, 18 h after stimulation, read-out: THP1 ISG IRF3 −/−: fold increase of luciferase activity over background; for fold induction at 10 µM: 10 μM compound
In short: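 PMA-differentiated (100 ng/ml) reporter cells carrying ISRE/ISG54 minimal promoter-driven secreted luciferase were stimulated with compounds at 5–20 μM (mostly 10 μM). Luciferase measured 18 h later and expressed as fold increase over untreated background, binned from "−" (<2.4-fold) to "+++++" (≥40-fold).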

[3] = system: CXCL10 secretion by CT26 cells; assay: RIG-I dependent CXCL10 secretion by CT26 colon carcinoma cells (ELISA); type: cell-based, murine; conditions: 24 h
In short: (§1)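 Murine CT26 colon carcinoma cells, and CRISPR-generated RIG-I knockout CT26 cells, were seeded at 1×10^4 cells/well and grown 24 h at 37 °C, 5% CO2, then treated with compounds at 5 to 20 μM. CXCL10 in supernatants was measured by ELISA 24 h after stimulation.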

[4] = system: RIG-I deficient CT26 RIG-1−/− cells; assay: CXCL10 secretion in RIG-I deficient CT26 RIG-1−/− cells (ELISA); type: cell-based, murine; conditions: 24 h
In short: as §1

Compound	fold induction at 10 µM [1]	fold induction at 10 µM [2]	CXCL10 secretion by CT26 cells ([3]; 10 μM compound)	CXCL10 secretion by CT26 RIG-I −/− cells ([4]; 10 μM compound)	CXCL10 secretion by CT26 cells ([3]; 5 μM compound (**))	CXCL10 secretion by CT26 RIG-I −/− cells ([4]; 5 μM compound (**))	fold induction at 20 µM ([1]; 20 μM compound (*))	fold induction at 20 µM ([2]; 20 μM compound (*))
O=C(Nc1nc2ccc(S(=O)(=O)N3CCC3)cc2s1)c1cc2c(cc1OCCCCN1CCOCC1)OCO2 [Example 64, N-[6-(azetidine-1-sulfonyl)-1,3-benzothiazol-2-yl]-6-[4-(morpholin-4-yl)butoxy]-2H-1,3-benzodioxole-5-carboxamide]	10 to 19	< 2.4	+++ (“+++” indicates 400-799 pg/mL)	− (“−” indicates less than 100 pg/mL)	–	–	–	–
O=C(Nc1nc2ccc(NC(=O)C3CCCCC3)cc2s1)c1cc2ccccc2cc1OCCN1CCOCC1 [Example 21, N-(6-cyclohexaneamido-1,3-benzothiazol-2-yl)-3-[2-(morpholin-4-yl)ethoxy]naphthalene-2-carboxamide]	5 to 9.9	< 2.4	–	–	+** (“+” indicates 100-199 pg/mL)	−** (“−” indicates less than 100 pg/mL)	–	–
O=C(Nc1nc2ccc(C(=O)Nc3c(Cl)cccc3Cl)cc2s1)c1ccc2ncccc2c1 [Example 15, N-{6-[(2,6-dichlorophenyl)carbamoyl]-1,3-benzothiazol-2-yl}quinoline-6-carboxamide]	20 to 39	< 2.4	++++ (“++++” indicates 800 to 1599 pg/mL)	− (“−” indicates less than 100 pg/mL)	–	–	–	–
O=C(Nc1nc2ccc(SC(F)F)cc2s1)c1cc2ccccc2cc1OCCN1CCOCC1 [Example 48, N-{6-[(difluoromethyl)sulfanyl]-1,3-benzothiazol-2-yl}-3-[2-(morpholin-4-yl)ethoxy]naphthalene-2-carboxamide]	–	–	++ (“++” indicates 200-399 pg/mL)	− (“−” indicates less than 100 pg/mL)	–	–	2.4 to 4.9	< 2.4
CS(=O)(=O)Nc1ccc2nc(NC(=O)c3cc4ccccc4cc3OCCCCN3CCOCC3)sc2c1 [Example 27, N-(6-methanesulfonamido-1,3-benzothiazol-2-yl)-3-[4-(morpholin-4-yl)butoxy]naphthalene-2-carboxamide]	20 to 39	< 2.4	+++ (“+++” indicates 400-799 pg/mL)	− (“−” indicates less than 100 pg/mL)	–	–	–	–
O=C(Nc1nc2ccc(S(=O)(=O)N3CCC3)cc2s1)c1cc2c(cc1OCCN1CCOCC1)OCO2 [Example 61, N-[6-(azetidine-1-sulfonyl)-1,3-benzothiazol-2-yl]-6-[2-(morpholin-4-yl)ethoxy]-2H-1,3-bezodioxole-5-carboxamide]	5 to 9.9	< 2.4	++ (“++” indicates 200-399 pg/mL)	− (“−” indicates less than 100 pg/mL)	–	–	–	–
O=C(Nc1nc2ccc(S(=O)(=O)N3CCC3)cc2s1)c1ccc(-c2ccccc2)cc1OCCCCN1CCOCC1 [Example 59]	10 to 19	< 2.4	+++ (“+++” indicates 400-799 pg/mL)	− (“−” indicates less than 100 pg/mL)	–	–	–	–
CN(C)S(=O)(=O)c1ccc2nc(NC(=O)c3cc4ccccc4cc3OCCN3CCOCC3)sc2c1 [Example 30, N-[6-(dimethylsulfamoyl)-1,3-benzothiazol-2-yl]-3-[2-(morpholin-4-yl)ethoxy]naphthalene-2-carboxamide]	10 to 19	< 2.4	+++ (“+++” indicates 400-799 pg/mL)	− (“−” indicates less than 100 pg/mL)	–	–	–	–
O=C(Nc1nc2ccc(S(=O)(=O)N3CC[C@@H](O)C3)cc2s1)c1cc2ccccc2cc1OCCN1CCOCC1 [Example 77, N-(6-{[(3R)-3-hydroxypyrrolidin-1-yl]sulfonyl}-1,3-benzothiazol-2-yl)-3-[2-(morpholin-4-yl)ethoxy]naphthalene-2-carboxamide]	2.4 to 4.9	< 2.4	+ (“+” indicates 100-199 pg/mL)	− (“−” indicates less than 100 pg/mL)	–	–	–	–
N#Cc1ccc2nc(NC(=O)c3cc4ccccc4cc3OCCN3CCOCC3)sc2c1 [Example 24, N-(6-cyano-1,3-benzothiazol-2-yl)-3-[2-(morpholin-4-yl)ethoxy]naphthalene-2-carboxamide]	5 to 9.9	< 2.4	− (“−” indicates less than 100 pg/mL)	− (“−” indicates less than 100 pg/mL)	–	–	–	–
O=C(Nc1nc2ccc(S(=O)(=O)N3CCC3)cc2s1)c1ccc(-c2ccccc2)cc1 [Example 50, N-[6-(azetidine-1-sulfonyl)-1,3-benzothiazol-2-yl]-[1,1′-biphenyl]-4-carboxamide]	5 to 9.9	< 2.4	+++++ (“+++++” indicates greater than or equal to 1600 pg/ml)	− (“−” indicates less than 100 pg/mL)	–	–	–	–
O=C(Nc1nc2cccc(NC(=S)Nc3ccccc3)c2s1)c1cc2ccccc2cc1OCCCCN1CCOCC1 [Example 33, 3-[4-(morpholin-4-yl)butoxy]-N-{7-[(phenylcarbamothioyl)amino]-1,3-benzothiazol-2-yl}naphthalene-2-carboxamide]	2.4 to 4.9	< 2.4	–	–	++** (“++” indicates 200-399 pg/mL)	−** (“−” indicates less than 100 pg/mL)	–	–
O=C(Nc1nc2ccc(S(=O)(=O)N3CCCCC3)cc2s1)c1cc2ccccc2cc1OCCCCN1CCOCC1 [Example 38, 3-[4-(morpholin-4-yl)butoxy]-N-[6-(piperidine-1-sulfonyl)-1,3-benzothiazol-2-yl]naphthalene-2-carboxamide]	10 to 19	< 2.4	+++ (“+++” indicates 400-799 pg/mL)	− (“−” indicates less than 100 pg/mL)	–	–	–	–
O=C(Nc1nc2ccc(OCC(F)(F)F)cc2s1)c1ccc2ccccc2c1 [Example 5, N-[6-(2,2,2-trifluoroethoxy)-1,3-benzothiazol-2-yl]naphthalene-2-carboxamide]	2.4 to 4.9	< 2.4	+++ (“+++” indicates 400-799 pg/mL)	− (“−” indicates less than 100 pg/mL)	–	–	–	–
O=C(Nc1cc2ccc(S(=O)(=O)N3CCCC3)cc2s1)c1cc2ccsc2cc1OCCCCN1CCOCC1 [Example 72, 6-[4-(morpholin-4-yl)butoxy]-N-[6-(pyrrolidine-1-sulfonyl)-1-benzothiophen-2-yl]-1-benzothiophene-5-carboxamide]	20 to 39	< 2.4	++++ (“++++” indicates 800 to 1599 pg/mL)	− (“−” indicates less than 100 pg/mL)	–	–	–	–
O=C(Nc1nc2ccc(SC(F)F)cc2s1)c1cc2ccccc2cc1OCCCCN1CCOCC1 [Example 49, N-{6-[(difluoromethyl)sulfanyl]-1,3-benzothiazol-2-yl}-3-[4-(morpholin-4-yl)butoxy]naphthalene-2-carboxamide]	20 to 39	< 2.4	+++ (“+++” indicates 400-799 pg/mL)	− (“−” indicates less than 100 pg/mL)	–	–	–	–
O=C(Nc1nc2ccc(SC(F)F)cc2s1)c1ccc2ccccc2c1 [Example 4, N-{6-[(difluoromethyl)sulfanyl]-1,3-benzothiazol-2-yl}naphthalene-2-carboxamide]	≥ 40	< 2.4	++++ (“++++” indicates 800 to 1599 pg/mL)	− (“−” indicates less than 100 pg/mL)	–	–	–	–
O=C(Nc1nc2ccc(S(=O)(=O)N3CCCC3)cc2s1)c1cc2ccccc2cc1OCCN1CCOCC1 [Example 29, 3-[2-(morpholin-4-yl)ethoxy]-N-[6-(pyrrolidine-1-sulfonyl)-1,3-benzothiazol-2-yl]naphthalene-2-carboxamide]	≥ 40	< 2.4	++++ (“++++” indicates 800 to 1599 pg/mL)	− (“−” indicates less than 100 pg/mL)	–	–	–	–
O=C(Nc1nc2ccc(SC(F)(F)F)cc2s1)c1ccc2ccccc2c1 [Example 9, N-{6-[(trifluoromethyl)sulfanyl]-1,3-benzothiazol-2-yl}naphthalene-2-carboxamide]	5 to 9.9	< 2.4	+++ (“+++” indicates 400-799 pg/mL)	− (“−” indicates less than 100 pg/mL)	–	–	–	–
